Experimental data taken from ChEMBL document CHEMBL5532634, “Oxazolidinone: A promising scaffold for the development of antibacterial drugs” (Eur J Med Chem, 2023).
≈ marks a conversion by molar mass, not a printed value.

How the values were obtained:
[1] = system: Staphylococcus epidermidis; assay: Antibacterial activity against Staphylococcus epidermidis ATCC 12228 assessed as reduction in bacterial growth measured after 24 hrs by broth microdilution method; type: functional
Staphylococcus aureus [2] = assay: Antibacterial activity against Staphylococcus aureus ATCC 29213 assessed as bacterial growth inhibition incubated for 24 hrs by broth dilution method; type: functional
Staphylococcus aureus [3] = assay: Antibacterial activity against methicillin-resistant Staphylococcus aureus ATCC 3300 assessed as reduction in microbial growth measured after 24 hrs by broth microdilution analysis; type: functional
Escherichia coli = assay: Antibacterial activity against Escherichia coli; type: functional
Streptococcus pneumoniae [4] = assay: Antibacterial activity against Streptococcus pneumoniae; type: functional
Staphylococcus aureus [5] = assay: Antibacterial activity against Methicillin-resistant Staphylococcus aureus assessed as reduction in microbial growth by Muller Hinton broth based dilution assay; type: functional
MCF7 = assay: Anticancer activity against human MCF7 cells assessed as inhibition of cell proliferation measured after 48 hrs by MTT assay; type: functional, cell-based; conditions: MCF7, 48 h
HT-29 = assay: Anticancer activity against human HT-29 cells assessed as inhibition of cell proliferative measured after 48 hrs by MTT assay; type: functional, cell-based; conditions: HT-29, 48 h
Staphylococcus aureus [6] = assay: Antibacterial activity against Staphylococcus aureus ATCC 25923 assessed as inhibition of bacterial growth incubated for 24 hrs by CLSI based broth microdilution method; type: functional
Enterococcus faecalis [7] = assay: Antibacterial activity against Enterococcus faecalis ATCC 29212 assessed as inhibition of bacterial growth incubated for 24 hrs by CLSI based broth microdilution method; type: functional
Streptococcus pneumoniae [8] = assay: Antibacterial activity against Streptococcus pneumoniae ATCC 49619 assessed as inhibition of bacterial growth incubated for 24 hrs by CLSI based broth microdilution method; type: functional
Bacillus subtilis = assay: Antibacterial activity against Bacillus subtilis ATCC 6633 assessed as inhibition of bacterial growth incubated for 24 hrs by CLSI based broth microdilution method; type: functional
Staphylococcus aureus [9] = assay: Antibacterial activity against Staphylococcus aureus ATCC 29213 assessed as reduction in microbial growth measured after 24 hrs by broth microdilution analysis; type: functional
Staphylococcus aureus [10] = assay: In vivo antibacterial activity against Staphylococcus aureus UC9213 infected in PO dosed mouse assessed as reduction in bacterial infection measured after 6 days by hematoxylin and eosin staining based microscopic analysis; type: functional; conditions: UC9213, 144 h, time 6 day
Staphylococcus aureus [11] = assay: Antibacterial activity against Staphylococcus aureus UC9213 assessed as reduction in bacterial growth; type: functional
Staphylococcus aureus [12] = assay: Antibacterial activity against fluoroquinolone/methicillin resistant Staphylococcus aureus clinical isolate 19-26 assessed as bacterial growth inhibition measured after 16 to 18 hrs by serial dilution method; type: functional; conditions: time 16-18 hrs
Staphylococcus aureus [13] = assay: Antibacterial activity against vancomycin-resistant Staphylococcus aureus assessed as bacterial growth inhibition measured after 16 to 18 hrs by serial dilution method; type: functional; conditions: time 16-18 hrs
[14] = system: Mycobacterium tuberculosis; assay: Antimycobacterial activity against Mycobacterium tuberculosis H37Rv assessed as reduction in bacterial cell growth by resazurin reduction method; type: functional
[15] = Clearance in CF1 mouse; type: ADME; conditions: in vivo
Staphylococcus aureus [16] = assay: Antibacterial activity against Methicillin-resistant Staphylococcus aureus assessed as inhibition of bacterial growth; type: functional
Staphylococcus aureus [17] = assay: Antibacterial activity against methicillin-susceptible Staphylococcus aureus assessed as inhibition of bacterial growth; type: functional
Staphylococcus aureus [18] = assay: Antibacterial activity against Staphylococcus aureus ATCC 25923 assessed as growth inhibition measured after 18 hrs by CLSI based method; type: functional
Streptococcus pneumoniae [19] = assay: Antibacterial activity against Streptococcus pneumoniae ATCC 49619 assessed as reduction in bacterial growth measured after 18 hrs by CLSI based analysis; type: functional
Streptococcus pyogenes = assay: Antibacterial activity Streptococcus pyogenes ATCC 12344 assessed as reduction in microbial growth by broth microdilution method; type: functional
Moraxella catarrhalis = assay: Antibacterial activity against wild type Moraxella catarrhalis incubated for 20 hrs by two-fold serial dilution method; type: functional
Haemophilus influenzae = assay: Antibacterial activity against Haemophilus influenzae ATCC 49247 by broth microdilution method; type: functional
[20] = system: Mycobacterium tuberculosis; assay: Antimycobacterial activity against Mycobacterium tuberculosis assessed as reduction in bacterial growth; type: functional
[21] = system: Mycobacterium tuberculosis; assay: Antimycobacterial activity against Mycobacterium tuberculosis H37Rv assessed as reduction in bacterial growth incubated for 7 days by resazurin based assay; type: functional; conditions: 168 h, time 7 day
PC-3 = assay: Inhibition of mitochondrial protein synthesis in human PC-3 cells at 100 uM incubated for 5 days; type: functional, cell-based; conditions: PC-3, 120 h
Staphylococcus aureus [22] = assay: Antibacterial activity against methicillin-resistant Staphylococcus aureus ATCC 4330 assessed as reduction in microbial growth incubated for 18 hrs by broth microdilution method; type: functional
[23] = system: Staphylococcus epidermidis; assay: Antibacterial activity against methicillin-resistant Staphylococcus epidermidis ATCC 12228 assessed as reduction in microbial growth incubated for 18 hrs by broth microdilution method; type: functional
Staphylococcus aureus [24] = assay: Antibacterial activity against vancomycin-resistant Staphylococcus aureus clinical isolate 1 assessed as inhibition of bacterial growth by broth microdilution method; type: functional
Enterococcus faecium = assay: Antibacterial activity against Enterococcus faecium ATCC 19434 assessed as reduction in microbial growth after 24 hrs by two-fold serial dilution method; type: functional
Enterococcus faecalis [25] = assay: Antibacterial activity against Enterococcus faecalis ATCC 29212 assessed as reduction in microbial growth after 24 hrs by two-fold serial dilution method; type: functional
Streptococcus pneumoniae [26] = assay: Antibacterial activity against Streptococcus pneumoniae ATCC 49619 assessed as inhibition of bacterial growth measured after 24 hrs by MH broth based assay; type: functional

O=C(CO)N1CC=C(c2ccc(N3C[C@H](COc4cnsn4)OC3=O)cc2F)CC1
MIC [1]: 0.13 µg/mL (≈ 0.299 µM)

C/C(S)=N\C[C@H]1CN(c2cc(F)c3c(c2)OC[C@@H]2CCCN32)C(=O)O1
MIC (Staphylococcus aureus [2]): 0.5 µg/mL (≈ 1.37 µM)

O=C1O[C@@H](COc2ccon2)CN1c1ccc(C2=CCOCC2)c(F)c1
MIC (Staphylococcus aureus [3]): 0.5 µg/mL

O=C(NO)[C@@H]1CN(c2ccc(C#CC#CC3CC3)c(F)c2)C(=O)O1
MIC (Escherichia coli): 0.004 µg/mL (≈ 0.0122 µM)
MIC (Streptococcus pneumoniae [4]): 0.004 µg/mL (≈ 0.0122 µM)

O=C1O[C@@H](Cn2ccnn2)CN1c1ccc(N2CCN(S(=O)(=O)c3cccc([N+](=O)[O-])c3)CC2)c(F)c1
MIC (Staphylococcus aureus [5]): 0.5 µg/mL

O=C1NC2(CO1)O/C(=C\c1ccc(Cl)cc1)C(=O)N2CCCNc1ccnc2cc(Cl)ccc12 (configuration not stated)
IC50 (MCF7): 16.1 µM
IC50 (HT-29): 32.4 µM

CC(=O)NC[C@H]1CN(c2ccc(N3CCN(C(=O)/C=C/c4ccco4)CC3)nc2)C(=O)O1
MIC (Staphylococcus aureus [6]): 8 µg/mL (≈ 18.2 µM)
MIC (Enterococcus faecalis [7]): 8 µg/mL (≈ 18.2 µM)

O=C([C@H](O)CO)N1CC=C(c2ccc(N3C[C@H](COc4cnsn4)OC3=O)cc2F)CC1
MIC [1]: 0.13 µg/mL (≈ 0.28 µM)

CC(=O)NC[C@H]1CN(c2ccc(N3CCN(C(=O)c4ccco4)CC3)nc2)C(=O)O1
MIC (Streptococcus pneumoniae [8]): > 64 µg/mL

CC(=O)NC[C@H]1CN(c2cnc(N3CCN(C(=O)/C=C/c4ccco4)CC3)c(F)c2)C(=O)O1
MIC (Bacillus subtilis): 4 µg/mL (≈ 8.74 µM)

O=C([C@H](O)CO)N1CC=C(c2ccc(N3C[C@H](COc4ccon4)OC3=O)cc2F)CC1
MIC (Staphylococcus aureus [9]): 0.25 µg/mL

CC(=O)NC[C@H]1CC(c2ccc(C3=CCN(C(=O)CO)CC3)c(F)c2)=NO1
ED50 (Staphylococcus aureus [10]): 9.1 mg/kg
MIC (Staphylococcus aureus [11]): 1 µg/mL (≈ 2.66 µM)

O=C1C=CN(c2c(F)cc(N3C[C@H](CNc4ccon4)OC3=O)c(F)c2F)CC1 [CONTEZOLID]
MIC (Staphylococcus aureus [12]): 0.125 µg/mL (≈ 0.306 µM)
MIC (Staphylococcus aureus [13]): 0.5 µg/mL (≈ 1.22 µM)

CN1CCN(c2ccc(N3C[C@H](CO)OC3=O)cc2F)C=N1 [DELPAZOLID]
MIC [14]: 0.5 µg/mL (≈ 1.62 µM)

CC(=O)NC[C@H]1CN(c2ccc(N3CCOCC3)c(F)c2)C(=O)O1 [LINEZOLID]
clearance [15]: 10.5 mL/min/kg
MIC (Staphylococcus aureus [16]): 1 µg/mL (≈ 2.96 µM)
MIC (Staphylococcus aureus [17]): 1 µg/mL (≈ 2.96 µM)

O=C([C@@H](O)CO)N1CC=C(c2c(F)cc(N3C[C@H](COc4ccon4)OC3=O)cc2F)CC1 [POSIZOLID]
MIC (Staphylococcus aureus [9]): 0.25 µg/mL

CC(=O)NC[C@H]1CN(c2ccc(-c3ccc(CNCc4cnn[nH]4)cc3)c(F)c2)C(=O)O1 [RADEZOLID]
MIC (Staphylococcus aureus [18]): 1 µg/mL (≈ 2.28 µM)
MIC (Streptococcus pneumoniae [19]): 0.25 µg/mL (≈ 0.57 µM)
MIC (Streptococcus pyogenes): 0.25 µg/mL
MIC90 (Moraxella catarrhalis): 0.5 µg/mL (≈ 1.14 µM)
MIC90 (Haemophilus influenzae): 1 µg/mL (≈ 2.28 µM)

CC(=O)NC[C@H]1CN(c2ccc(N3CCSCC3)c(F)c2)C(=O)O1 [SUTEZOLID]
MIC [20]: 0.125 µg/mL (≈ 0.354 µM)

COC(=O)NC[C@H]1CN(c2ccc(N3CC4(COC4)C3)c(F)c2)C(=O)O1 [TBI-223]
MIC [21]: 0.6 µg/mL (≈ 1.64 µM)
IC50 (PC-3): > 74 µM

Cn1nnc(-c2ccc(-c3ccc(N4C[C@H](COP(=O)(O)O)OC4=O)cc3F)cn2)n1 [TEDIZOLID PHOSPHATE]
MIC50 (Staphylococcus aureus [22]): 0.12 µg/mL
MIC90 [23]: 0.12 µg/mL
MIC (Staphylococcus aureus [24]): 0.25 µg/mL
MIC (Enterococcus faecium): 0.25 µg/mL
MIC (Enterococcus faecalis [25]): 0.25 µg/mL
MIC (Streptococcus pneumoniae [26]): 0.25 µg/mL
